Assay results as given in patent US6737383B1, “Herbicidal oxadiazolidines” (priority 1999, dated 2004).

Assays:
blackgrass = test: Test B pre/postemergence blackgrass; format: in vivo, Alopecurus myosuroides
How it was run: (§1)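 Test chemicals in a non-phytotoxic solvent mixture with surfactant were sprayed preemergence onto planted seeds and postemergence onto plants 2 to 18 cm tall (1- to 4-leaf stage). After twelve to sixteen days in a greenhouse, injury was visually rated against untreated controls from 0 (no effect) to 10 (complete control).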

surinam grass = test: Test B pre/postemergence surinam grass; format: in vivo, Brachiaria decumbens
How it was run: as §1

velvetleaf = test: Test B pre/postemergence velvetleaf; format: in vivo, Abutilon theophrasti
How it was run: as §1

sugar beet = test: Test B pre/postemergence sugar beet; format: in vivo, Beta vulgaris
How it was run: as §1

wheat = test: Test B pre/postemergence wheat; format: in vivo, Triticum aestivum
How it was run: as §1

rape = test: Test B pre/postemergence rape; format: in vivo, Brassica napus
How it was run: as §1

giant foxtail = test: Test B pre/postemergence giant foxtail; format: in vivo, Setaria faberii
How it was run: as §1

wild oat = test: Test B pre/postemergence wild oat; format: in vivo, Avena fatua
How it was run: as §1

corn = test: Test B pre/postemergence corn; format: in vivo, Zea mays
How it was run: as §1

bedstraw = test: Test B pre/postemergence bedstraw; format: in vivo, Galium aparine
How it was run: as §1

pigweed = test: Test B pre/postemergence pigweed; format: in vivo, Amaranthus retroflexus
How it was run: as §1

soybean = test: Test B pre/postemergence soybean; format: in vivo, Glycine max
How it was run: as §1

morningglory = test: Test B pre/postemergence morningglory; format: in vivo, Ipomoea hederacea
How it was run: as §1

cocklebur = test: Test B pre/postemergence cocklebur; format: in vivo, Xanthium strumarium
How it was run: as §1

[1] = Postemergence, Rate 125 g/ha, scale of 0 to 10 where 0 is no effect and 10 is complete control
[2] = Preemergence, Rate 62 g/ha, scale of 0 to 10 where 0 is no effect and 10 is complete control
[3] = Preemergence, Rate 250 g/ha, scale 0 to 10, 0 is no effect, 10 is complete control
[4] = Preemergence, Rate 500 g/ha, scale 0 to 10 (0 no effect, 10 complete control)
[5] = Rate 62 g/ha, Postemergence, scale of 0 to 10 where 0 is no effect and 10 is complete control
[6] = Rate 250 g/ha, Postemergence, scale 0 to 10, 0 is no effect, 10 is complete control
[7] = Rate 500 g/ha, Postemergence, scale 0 to 10
[8] = Preemergence, Rate 125 g/ha, 0 is no effect, 10 is complete control

CC1CCCCC1n1c(=O)on(C(=O)N(c2ccc(F)cc2)C(C)C)c1=O (stereo not drawn) [Compound 161]
Blackgrass plant response rating (blackgrass; [1]): 0
Blackgrass plant response rating (blackgrass; [2]): 3
Blackgrass plant response rating (blackgrass; [3]): 7
Blackgrass plant response rating (blackgrass; [4]): 9
Blackgrass plant response rating (blackgrass; [5]): 0
Plant response rating, Blackgrass (blackgrass; [6]): 3
Blackgrass plant response rating (blackgrass; [7]): 4
B. signalgrass plant response rating (surinam grass; [1]): 0
B. signalgrass plant response rating (surinam grass; [2]): 0
B. signalgrass plant response rating (0 to 10 scale) (surinam grass; [8]): 0
B. signalgrass plant response rating (surinam grass; [3]): 5
B. signalgrass plant response rating (surinam grass; [4]): 5
B. signalgrass plant response rating (surinam grass; [5]): 0
Plant response rating, B. signalgrass (surinam grass; [6]): 2
B. signalgrass plant response rating (surinam grass; Rate 500 g/ha, Postemergence, scale 0 to 10, 0 no effect, 10 complete control): 7
Velvetleaf plant response rating (velvetleaf; [2]): 0
Velvetleaf plant response rating (0 to 10 scale) (velvetleaf; [8]): 0
Velvetleaf plant response rating (velvetleaf; [3]): 0
Velvetleaf plant response rating (velvetleaf; [4]): 0
Plant response rating, Velvetleaf (velvetleaf; [6]): 2
Velvetleaf plant response rating (velvetleaf; [7]): 6
Sugarbeets plant response rating (sugar beet; [1]): 2
Sugarbeets plant response rating (sugar beet; [2]): 0
Sugarbeets plant response rating (0 to 10 scale) (sugar beet; [8]): 0
Sugarbeets plant response rating (sugar beet; [3]): 0
Sugarbeets plant response rating (sugar beet; [4]): 0
Sugarbeets plant response rating (sugar beet; [5]): 0
Plant response rating, Sugarbeets (sugar beet; [6]): 4
Sugarbeets plant response rating (sugar beet; [7]): 7
Wheat plant response rating (wheat; [2]): 0
Wheat plant response rating (0 to 10 scale) (wheat; [8]): 0
Wheat plant response rating (wheat; [3]): 0
Wheat plant response rating (wheat; [4]): 2
Plant response rating, Wheat (wheat; [6]): 0
Wheat plant response rating (wheat; [7]): 0
Rape plant response rating (rape; [1]): 0
Rape plant response rating (rape; [2]): 0
Rape plant response rating (0 to 10 scale) (rape; [8]): 0
Rape plant response rating (rape; [3]): 0
Rape plant response rating (rape; [4]): 3
Rape plant response rating (rape; [5]): 0
Plant response rating, Rape (rape; [6]): 0
Rape plant response rating (rape; [7]): 4
Giant foxtail plant response rating (giant foxtail; [1]): 0
Giant foxtail plant response rating (giant foxtail; [2]): 4
Giant foxtail plant response rating (0 to 10 scale) (giant foxtail; [8]): 9
Giant foxtail plant response rating (giant foxtail; [3]): 9
Giant foxtail plant response rating (giant foxtail; [4]): 10
Giant foxtail plant response rating (giant foxtail; [5]): 0
Plant response rating, Giant foxtail (giant foxtail; [6]): 3
Giant foxtail plant response rating (giant foxtail; [7]): 7
Wild oats plant response rating (wild oat; [2]): 0
Wild oats plant response rating (0 to 10 scale) (wild oat; [8]): 0
Wild oats plant response rating (wild oat; [3]): 3
Wild oats plant response rating (wild oat; [4]): 6
Plant response rating, Wild oats (wild oat; [6]): 0
Wild oats plant response rating (wild oat; [7]): 0
Corn plant response rating (corn; [1]): 0
Corn plant response rating (corn; [2]): 0
Corn plant response rating (0 to 10 scale) (corn; [8]): 0
Corn plant response rating (corn; [3]): 0
Corn plant response rating (corn; [4]): 0
Corn plant response rating (corn; [5]): 0
Plant response rating, Corn (corn; [6]): 0
Corn plant response rating (corn; [7]): 0
Bedstraw plant response rating (bedstraw; [1]): 3
Bedstraw plant response rating (bedstraw; [2]): 0
Bedstraw plant response rating (0 to 10 scale) (bedstraw; [8]): 0
Bedstraw plant response rating (bedstraw; [3]): 0
Bedstraw plant response rating (bedstraw; [4]): 0
Bedstraw plant response rating (bedstraw; [5]): 0
Plant response rating, Bedstraw (bedstraw; [6]): 4
Bedstraw plant response rating (bedstraw; [7]): 4
Redroot pigweed plant response rating (pigweed; [1]): 0
Redroot pigweed plant response rating (pigweed; [2]): 0
Redroot pigweed plant response rating (0 to 10 scale) (pigweed; [8]): 0
Redroot pigweed plant response rating (pigweed; [3]): 4
Redroot pigweed plant response rating (pigweed; [4]): 10
Redroot pigweed plant response rating (pigweed; [5]): 0
Plant response rating, Redroot pigweed (pigweed; [6]): 4
Redroot pigweed plant response rating (pigweed; [7]): 5
Soybean plant response rating (soybean; [1]): 2
Soybean plant response rating (soybean; [2]): 0
Soybean plant response rating (0 to 10 scale) (soybean; [8]): 0
Soybean plant response rating (soybean; [3]): 0
Soybean plant response rating (soybean; [4]): 0
Soybean plant response rating (soybean; [5]): 2
Plant response rating, Soybean (soybean; [6]): 4
Soybean plant response rating (soybean; [7]): 4
Morningglory plant response rating (morningglory; [1]): 5
Morningglory plant response rating (morningglory; [2]): 0
Morningglory plant response rating (0 to 10 scale) (morningglory; [8]): 0
Morningglory plant response rating (morningglory; [3]): 0
Morningglory plant response rating (morningglory; [4]): 0
Morningglory plant response rating (morningglory; [5]): 4
Plant response rating, Morningglory (morningglory; [6]): 7
Morningglory plant response rating (morningglory; [7]): 10
Cocklebur plant response rating (cocklebur; [1]): 0
Cocklebur plant response rating (cocklebur; [2]): 0
Cocklebur plant response rating (0 to 10 scale) (cocklebur; [8]): 0
Cocklebur plant response rating (cocklebur; [3]): 0
Cocklebur plant response rating (cocklebur; [4]): 0
Cocklebur plant response rating (cocklebur; [5]): 0
Plant response rating, Cocklebur (cocklebur; [6]): 0
Cocklebur plant response rating (cocklebur; [7]): 3
